Assay [1] addresses T1, Plasminogen (Homo sapiens, UniProt P00747). The assay can be described thus: Inhibition of human plasmin preincubated for 15 mins followed by MeOSuc-Ala-Phe-Lys-AMC substrate addition and measured after 30 mins by fluorescence method.
A further assay concerns the target Coagulation factor XI (Homo sapiens, UniProt P03951). The assay can be described thus: Inhibition of human factor 11a preincubated for 15 mins followed by Boc-Glu (OBzl) -Ala-Arg-AMC and measured after 30 mins by fluorescence method.
Assay [2] deals with T2, Plasma kallikrein (Homo sapiens, UniProt P03952). The assay can be described thus: Inhibition of human plasma kallikrein preincubated for 15 mins followed by H-Pro-Phe-Arg-AMC substrate addition and measured after 30 mins by fluorescence method.
Assay [3] has as its target T1, Plasminogen. The assay can be described thus: Inhibition of microplasmin (unknown origin) expressed in Pichia pastoris preincubated for 10 mins followed by S2251 substrate addition.
A further assay deals with Plasma. The assay can be described thus: Anti-fibrinolytic activity in 5% human plasma in presence of fibrinogen by spectrophotometric method. The class given is functional, cell-free.
For assay [4], the target named is T1, Plasminogen. As to the kind of experiment: Inhibition of plasmin (unknown origin) assessed as reduction in amidolytic activity using S-2251 as the substrate after 4 mins.
The target in assay [5] is T1, Plasminogen. The assay can be described thus: Inhibition of human plasmin using tosyl-Gly-Pro-Lys-pNA as substrate after 10 mins by UV/Vis photometry.
Assay [6] has as its target T2, Plasma kallikrein. The assay can be described thus: Inhibition of human plasma kallikrein using S2302 as substrate after 10 mins by UV/Vis photometry.
Assay [7] concerns the target Urokinase-type plasminogen activator (Homo sapiens, UniProt P00749). The assay can be described thus: Inhibition of urokinase-type plasminogen activator (unknown origin).
Assay [8] has as its target T1, Plasminogen. As to the kind of experiment: Inhibition of plasmin (unknown origin).
Assay [9] deals with Vitamin K-dependent protein C (Homo sapiens, UniProt P04070). As to the kind of experiment: Inhibition of human activated protein […] C using H-D-Lys(Cbo)-Pro-Arg-pNA as substrate.
Assay [10] can be described thus: Inhibition of human urinary kallikrein using H-D-Val-Leu-Arg-pNA as substrate.
Assay [11] deals with T3, Complement C1s subcomponent (Homo sapiens, UniProt P09871).
T3 sequence (P09871 whole entry): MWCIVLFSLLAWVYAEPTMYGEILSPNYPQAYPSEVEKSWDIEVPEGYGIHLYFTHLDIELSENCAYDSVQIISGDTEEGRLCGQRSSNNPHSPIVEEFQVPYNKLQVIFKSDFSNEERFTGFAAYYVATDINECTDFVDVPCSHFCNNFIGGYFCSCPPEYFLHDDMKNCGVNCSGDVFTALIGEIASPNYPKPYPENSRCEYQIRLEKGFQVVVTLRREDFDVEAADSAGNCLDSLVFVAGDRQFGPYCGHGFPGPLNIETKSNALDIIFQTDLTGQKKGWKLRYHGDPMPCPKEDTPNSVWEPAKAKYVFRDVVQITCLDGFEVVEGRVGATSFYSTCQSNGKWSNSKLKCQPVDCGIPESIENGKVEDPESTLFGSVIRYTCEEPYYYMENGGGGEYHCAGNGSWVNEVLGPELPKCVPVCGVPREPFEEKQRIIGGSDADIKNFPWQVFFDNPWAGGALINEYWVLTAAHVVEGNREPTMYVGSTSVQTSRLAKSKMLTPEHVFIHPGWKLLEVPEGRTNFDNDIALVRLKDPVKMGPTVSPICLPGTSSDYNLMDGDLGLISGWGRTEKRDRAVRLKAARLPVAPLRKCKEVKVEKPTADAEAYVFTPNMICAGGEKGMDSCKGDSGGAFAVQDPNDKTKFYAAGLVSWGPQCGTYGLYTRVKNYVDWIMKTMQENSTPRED
The assay can be described thus: Inhibition of human Complement C1s subcomponent using Val-Ser-Arg-pNA as substrate.

The target in assay [12] is T4, Complement C1r subcomponent (Homo sapiens, UniProt P00736).
T4 sequence (P00736 whole entry): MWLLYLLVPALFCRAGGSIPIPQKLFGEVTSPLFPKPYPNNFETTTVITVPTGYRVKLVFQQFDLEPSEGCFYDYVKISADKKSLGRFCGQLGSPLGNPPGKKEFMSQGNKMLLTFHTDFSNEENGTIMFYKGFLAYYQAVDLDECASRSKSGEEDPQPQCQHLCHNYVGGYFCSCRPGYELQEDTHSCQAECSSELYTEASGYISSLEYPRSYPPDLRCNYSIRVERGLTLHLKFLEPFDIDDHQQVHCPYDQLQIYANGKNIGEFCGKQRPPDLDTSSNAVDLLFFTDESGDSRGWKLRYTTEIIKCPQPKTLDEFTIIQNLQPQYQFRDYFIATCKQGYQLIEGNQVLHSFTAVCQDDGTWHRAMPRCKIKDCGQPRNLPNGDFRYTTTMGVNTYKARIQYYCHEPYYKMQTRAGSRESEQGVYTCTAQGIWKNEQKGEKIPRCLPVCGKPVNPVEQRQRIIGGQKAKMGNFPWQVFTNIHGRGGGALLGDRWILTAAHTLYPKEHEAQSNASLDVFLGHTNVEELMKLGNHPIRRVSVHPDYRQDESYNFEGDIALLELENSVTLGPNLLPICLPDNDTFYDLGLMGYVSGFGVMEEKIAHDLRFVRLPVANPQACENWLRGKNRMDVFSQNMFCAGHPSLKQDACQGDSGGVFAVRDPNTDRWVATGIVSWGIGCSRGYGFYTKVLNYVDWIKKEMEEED
As to the kind of experiment: Inhibition of human Complement C1r subcomponent using Val-Ser-Arg-pNA as substrate.

In another assay the target is Prothrombin (Homo sapiens, UniProt P00734). The assay can be described thus: Inhibition of human factor 2a using Mes-d-Cha-Gly-Arg-pNA as substrate.
Another assay has as its target Coagulation factor X (Homo sapiens, UniProt P00742). As to the kind of experiment: Inhibition of human factor 10a using MeOCO-d-Cha-Gly-Arg-pNA as substrate.
The next assay deals with T5, Coagulation factor XII (Homo sapiens, UniProt P00748).
T5 sequence (P00748 whole entry): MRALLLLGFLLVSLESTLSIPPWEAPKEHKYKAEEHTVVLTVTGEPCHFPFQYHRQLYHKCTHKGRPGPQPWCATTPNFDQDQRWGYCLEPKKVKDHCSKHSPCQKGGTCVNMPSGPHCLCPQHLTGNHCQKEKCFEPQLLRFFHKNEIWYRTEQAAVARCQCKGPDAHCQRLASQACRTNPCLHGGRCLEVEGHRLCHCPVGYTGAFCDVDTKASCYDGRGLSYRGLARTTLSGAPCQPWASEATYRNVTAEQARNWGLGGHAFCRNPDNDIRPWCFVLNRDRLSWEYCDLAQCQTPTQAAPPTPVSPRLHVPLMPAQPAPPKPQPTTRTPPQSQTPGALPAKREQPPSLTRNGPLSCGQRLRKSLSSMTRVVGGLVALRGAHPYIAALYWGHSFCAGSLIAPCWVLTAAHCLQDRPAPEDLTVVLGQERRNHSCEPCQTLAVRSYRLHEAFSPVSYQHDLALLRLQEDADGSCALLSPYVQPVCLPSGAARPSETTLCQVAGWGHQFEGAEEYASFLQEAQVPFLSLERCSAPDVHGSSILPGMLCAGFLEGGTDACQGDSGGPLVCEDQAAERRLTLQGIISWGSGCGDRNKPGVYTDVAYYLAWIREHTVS
As to the kind of experiment: Inhibition of human factor 12a using CHA-Gly-Arg- pNA as substrate.

Assay [13] deals with Tissue-type plasminogen activator (Homo sapiens, UniProt P00750). As to the kind of experiment: Inhibition of human tissue-type plasminogen activator using Mes-d-Cha- Gly-Arg-pNA as substrate.

The results in this text go back to ChEMBL document CHEMBL4354815, “Fibrinolysis Inhibitors: Potential Drugs for the Treatment and Prevention of Bleeding” (J Med Chem, 2020).

As a reminder, the IC50 is the concentration that gives 50% inhibition. The term Ki denotes the equilibrium dissociation constant of an inhibitor or competing ligand from its target. High values mean a looser hold on the target, low ones a stronger hold on the target.

SMILES strings stand for the structures.

Chain of Coagulation factor XI (P03951 19-387 limits assumed): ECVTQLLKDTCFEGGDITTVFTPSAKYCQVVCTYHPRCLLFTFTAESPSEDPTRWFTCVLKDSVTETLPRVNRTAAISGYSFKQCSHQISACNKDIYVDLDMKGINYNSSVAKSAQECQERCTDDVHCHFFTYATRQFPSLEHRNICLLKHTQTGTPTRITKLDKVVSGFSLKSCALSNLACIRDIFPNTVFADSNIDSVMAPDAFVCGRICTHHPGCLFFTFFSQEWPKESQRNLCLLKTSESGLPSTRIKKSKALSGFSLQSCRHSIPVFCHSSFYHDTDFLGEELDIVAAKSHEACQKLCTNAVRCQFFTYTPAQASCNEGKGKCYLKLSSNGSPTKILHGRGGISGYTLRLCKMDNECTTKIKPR
Chain of Coagulation factor XI (P03951 388-625 limits assumed): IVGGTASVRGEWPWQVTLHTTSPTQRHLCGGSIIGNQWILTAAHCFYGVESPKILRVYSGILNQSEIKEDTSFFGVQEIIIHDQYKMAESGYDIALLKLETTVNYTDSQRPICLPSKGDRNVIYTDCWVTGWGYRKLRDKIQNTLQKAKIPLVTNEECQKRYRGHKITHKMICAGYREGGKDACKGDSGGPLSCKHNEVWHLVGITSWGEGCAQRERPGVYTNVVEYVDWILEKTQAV
T1 sequence (P00747 97-580 limits assumed): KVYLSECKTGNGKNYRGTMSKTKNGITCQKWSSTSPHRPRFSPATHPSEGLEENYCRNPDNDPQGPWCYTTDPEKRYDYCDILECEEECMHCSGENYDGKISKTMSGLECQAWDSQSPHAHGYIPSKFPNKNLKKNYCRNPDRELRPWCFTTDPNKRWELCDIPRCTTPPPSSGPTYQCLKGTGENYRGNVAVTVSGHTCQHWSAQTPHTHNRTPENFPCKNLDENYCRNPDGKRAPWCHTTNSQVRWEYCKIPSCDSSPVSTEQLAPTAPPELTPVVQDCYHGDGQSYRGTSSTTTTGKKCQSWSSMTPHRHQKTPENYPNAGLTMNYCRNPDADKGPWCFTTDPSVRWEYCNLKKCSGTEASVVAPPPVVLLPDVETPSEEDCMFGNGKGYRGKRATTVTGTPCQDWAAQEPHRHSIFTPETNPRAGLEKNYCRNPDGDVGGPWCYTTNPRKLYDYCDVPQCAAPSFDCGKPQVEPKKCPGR
T1 sequence (P00747 581-810 limits assumed): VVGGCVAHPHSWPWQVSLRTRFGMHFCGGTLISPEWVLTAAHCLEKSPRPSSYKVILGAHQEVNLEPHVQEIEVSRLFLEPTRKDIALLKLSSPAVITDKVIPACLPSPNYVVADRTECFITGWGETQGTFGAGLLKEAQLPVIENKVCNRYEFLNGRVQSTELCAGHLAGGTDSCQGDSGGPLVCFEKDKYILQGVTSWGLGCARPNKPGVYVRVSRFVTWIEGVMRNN
T2 sequence (P03952 20-390 limits assumed): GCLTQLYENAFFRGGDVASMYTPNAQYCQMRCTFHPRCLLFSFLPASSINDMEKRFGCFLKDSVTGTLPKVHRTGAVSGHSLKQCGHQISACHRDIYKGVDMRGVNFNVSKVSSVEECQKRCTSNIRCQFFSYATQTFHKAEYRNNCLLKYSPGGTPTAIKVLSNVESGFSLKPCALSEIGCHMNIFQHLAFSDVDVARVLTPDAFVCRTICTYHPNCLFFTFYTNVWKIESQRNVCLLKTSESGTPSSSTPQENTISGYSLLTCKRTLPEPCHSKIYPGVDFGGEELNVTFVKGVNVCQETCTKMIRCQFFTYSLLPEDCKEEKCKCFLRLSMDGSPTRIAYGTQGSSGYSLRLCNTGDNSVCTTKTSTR
T2 sequence (P03952 391-638 limits assumed): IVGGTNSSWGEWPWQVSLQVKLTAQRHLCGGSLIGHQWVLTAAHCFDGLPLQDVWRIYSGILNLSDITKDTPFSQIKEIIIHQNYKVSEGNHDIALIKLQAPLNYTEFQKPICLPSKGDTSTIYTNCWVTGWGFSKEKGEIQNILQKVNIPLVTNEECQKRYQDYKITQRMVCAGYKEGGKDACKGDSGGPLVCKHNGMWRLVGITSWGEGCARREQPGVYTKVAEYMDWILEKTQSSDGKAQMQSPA
Chain of Tissue-type plasminogen activator (P00750 whole entry): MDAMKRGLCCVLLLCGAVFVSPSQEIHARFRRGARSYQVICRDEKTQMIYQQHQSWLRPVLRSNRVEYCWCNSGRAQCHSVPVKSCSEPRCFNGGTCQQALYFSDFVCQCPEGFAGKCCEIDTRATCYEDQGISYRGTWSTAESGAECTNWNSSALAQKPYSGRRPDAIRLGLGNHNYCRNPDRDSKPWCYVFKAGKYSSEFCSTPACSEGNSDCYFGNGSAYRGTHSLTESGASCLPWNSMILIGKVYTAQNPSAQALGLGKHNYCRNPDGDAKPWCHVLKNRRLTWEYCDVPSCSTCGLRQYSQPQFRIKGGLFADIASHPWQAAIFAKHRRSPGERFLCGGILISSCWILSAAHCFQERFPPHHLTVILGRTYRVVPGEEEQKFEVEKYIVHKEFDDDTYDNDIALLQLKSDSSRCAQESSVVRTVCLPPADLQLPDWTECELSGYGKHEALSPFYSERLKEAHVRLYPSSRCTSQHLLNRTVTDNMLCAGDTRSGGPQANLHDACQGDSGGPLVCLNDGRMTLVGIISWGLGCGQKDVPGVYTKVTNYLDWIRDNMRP
Chain of Vitamin K-dependent protein C (P04070 43-197 limits assumed): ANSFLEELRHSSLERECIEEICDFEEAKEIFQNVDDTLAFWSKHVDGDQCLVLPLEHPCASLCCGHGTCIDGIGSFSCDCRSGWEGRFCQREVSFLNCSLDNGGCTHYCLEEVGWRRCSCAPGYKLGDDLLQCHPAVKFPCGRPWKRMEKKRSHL
Chain of Vitamin K-dependent protein C (P04070 212-461 limits assumed): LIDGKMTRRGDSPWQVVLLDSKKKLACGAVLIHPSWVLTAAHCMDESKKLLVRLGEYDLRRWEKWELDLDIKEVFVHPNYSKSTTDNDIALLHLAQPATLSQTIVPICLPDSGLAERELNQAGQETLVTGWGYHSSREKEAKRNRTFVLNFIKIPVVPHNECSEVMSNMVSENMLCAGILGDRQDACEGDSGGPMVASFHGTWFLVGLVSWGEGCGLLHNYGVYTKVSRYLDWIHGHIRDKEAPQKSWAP
Chain of Coagulation factor X (P00742 41-179 limits assumed): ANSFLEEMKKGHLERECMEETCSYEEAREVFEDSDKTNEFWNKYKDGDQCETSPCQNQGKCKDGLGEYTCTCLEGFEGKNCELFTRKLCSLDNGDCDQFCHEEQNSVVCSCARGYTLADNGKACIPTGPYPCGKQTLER
Chain of Coagulation factor X (P00742 235-488 limits assumed): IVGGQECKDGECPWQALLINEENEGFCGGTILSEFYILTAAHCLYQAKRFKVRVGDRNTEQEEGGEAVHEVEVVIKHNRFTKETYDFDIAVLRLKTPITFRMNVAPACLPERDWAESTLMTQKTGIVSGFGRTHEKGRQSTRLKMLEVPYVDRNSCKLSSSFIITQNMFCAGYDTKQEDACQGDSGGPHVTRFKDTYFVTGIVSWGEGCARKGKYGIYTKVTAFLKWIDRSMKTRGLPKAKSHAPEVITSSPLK

Take `Cc1cc2c(=O)c(C(=O)O)c[nH]c2cc1-c1ccc(C[C@H](NC(=O)[C@H]2CC[C@H](CN)CC2)C(=O)Nc2cc(Cl)c3[nH]c(=O)[nH]c3c2)cc1`: the IC50 against Plasminogen [1] is 2.1 nM; against Coagulation factor XI, 6.5 nM; against Plasma kallikrein [2], 0.7 nM.
On Plasminogen [3], `CCCCCCCCNC(=O)[C@H](Cc1ccc(OCc2ccc3ccccc3n2)cc1)NC(=O)[C@H]1CC[C@H](CN)CC1` returned an IC50 of 380 nM.
For `O=c1cc(C2CCNCC2)n2nc3ccc(F)c(-c4ccccc4)c3c2[nH]1`, the IC50 with Plasma was determined as 11 nM.
Same read-out and setting: the figure for `CC(C)(C)NC(=O)Nc1cccc2nn3c(C4CCNCC4)cc(=O)[nH]c3c12` is 9.1 nM.
On the same count and under the same terms, the figure for `O=C(c1cnn2c(C3CCNCC3)cc(=O)[nH]c12)C1CC1` is 8 nM.
In the case of `CNC(=O)c1ccc(NC(=O)[C@H](Cc2ccc(-c3cc4[nH]cc(C(=O)O)c(=O)c4cc3C)cc2)NC(=O)[C@H]2CC[C@H](CN)CC2)cc1Cl`, the figures for the IC50 against Plasminogen [1], against Coagulation factor XI and against Plasma kallikrein [2] were 1 nM, 21.5 nM and 8.5 nM, respectively.
For the compound `CCC(C)C(=O)c1cnn2c(C3CCNCC3)cc(=O)[nH]c12` (stereo not drawn), the IC50 in the assay on Plasma worked out at 8 nM.
For the compound `CC[C@@H](C)[C@@H](N)C(=O)N[C@@H](Cc1ccccc1)C(=O)N[C@@H](CCCCN)C(=O)Nc1ccc(C(=O)c2ccccc2)cc1`, on Plasminogen [4], the IC50 worked out at 69000 nM.
Still for that read-out and setting: with `NC[C@H]1CC[C@H](C(=O)N[C@@H](CCCCNC(=O)OCc2ccccc2)C(=O)COc2ccc(C(=O)c3ccccc3)cc2)CC1` the figure was 200000 nM.
In the case of `CCCCCCCCNC(=O)[C@H](Cc1ccc(OCc2ccncc2)cc1)NC(=O)[C@H]1CC[C@H](CN)CC1`, the IC50 against Plasminogen [3] came out at 240 nM.
Consider `Cc1nc2nc(C(C)C)[nH]c2cc1-c1ccc(C[C@H](NC(=O)[C@H]2CC[C@H](CN)CC2)C(=O)Nc2ccc(-c3nnc(C(F)(F)C(F)(F)C(=O)O)[nH]3)cc2)cc1`, for which the half-maximal inhibitory concentration (IC50) was 0.42 nM at Plasminogen [1], under 0.13 nM on Coagulation factor XI and 1.7 nM against Plasma kallikrein [2].
For `Cc1nc2[nH]c(C3CC3)nc2cc1-c1ccc(C[C@H](NC(=O)[C@H]2CC[C@H](CN)CC2)C(=O)Nc2cc(Cl)c3[nH]c(=O)[nH]c3c2)cc1`, the IC50 at Plasminogen [1] was determined as 0.4 nM; at Coagulation factor XI, 0.7 nM.
Consider `NCCCC[C@H](NC(=O)[C@H]1CC[C@H](CN)CC1)C(=O)NCOc1ccc(C(=O)c2ccccc2)cc1`, for which, at Plasminogen [4], the IC50 was 660000 nM.
Regarding `Cc1cc2nc(C(C)C)[nH]c2cc1-c1ccc(C[C@H](NC(=O)[C@H]2CC[C@H](CN)CC2)C(=O)Nc2ccc(-c3nnc(C(F)(F)C(F)(F)C(=O)O)[nH]3)cc2)cc1`, the IC50 stood at 0.87 nM against Plasminogen [1], 0.34 nM against Coagulation factor XI and 7.2 nM against Plasma kallikrein [2].
With `NCCCCCC(=O)N[C@@H](CCCCN)C(=O)Nc1ccc(C(=O)c2ccccc2)cc1`, the IC50 on Plasminogen [4] came to 12000 nM.
Take `N=C(N)c1ccc(CNC(=O)[C@H](Cc2cccc(CN)c2)NC(=O)[C@@H](Cc2ccc3ccccc3c2)NS(=O)(=O)Cc2ccccc2)cc1`: the Ki turned out to be 1.1 nM at Plasminogen [5] and 0.1 nM at Plasma kallikrein [6].
Regarding `C#Cc1cccc2nn3c(C4CCNCC4)cc(=O)[nH]c3c12`, the IC50 in the assay with Plasma turned out to be 10 nM.
Regarding `N=C(N)c1ccc(CNC(=O)[C@H](CCc2ccncc2)NC(=O)[C@@H](CCCc2ccccc2)NS(=O)(=O)Cc2ccccc2)cc1`, the Ki at Plasminogen [5] amounted to 0.48 nM; on Plasma kallikrein [6] it was 0.6 nM.
Regarding `O=C(NCc1ccco1)Nc1cccc2nn3c(C4CCNCC4)cc(=O)[nH]c3c12`, the 50% inhibitory concentration (IC50) in the assay on Plasma worked out at 85 nM.
On the same count and under the same terms, the figure for `CCc1ccc(C(=O)Nc2cccc3nn4c(C5CCNCC5)cc(=O)[nH]c4c23)cc1` is 10 nM; for `CCCc1noc(-c2c(C)nn3c(C4CCNCC4)cc(=O)[nH]c23)n1` it is 6 nM; for `Cc1cc(Cl)c2c(c1)nn1c(C3CCNCC3)cc(=O)[nH]c21` it is 11 nM.
With `N=C(N)c1ccc(CNC(=O)[C@H](CCc2ccccc2)NC(=O)[C@@H](CO)NS(=O)(=O)Cc2ccccc2)cc1`, the Ki in assay [7] stood at 28 nM; at Plasminogen [8], 36 nM.
For the compound `N=C(N)c1ccc(CNC(=O)[C@H](CCC2CCNCC2)NC(=O)[C@@H](CCC2CCN(C(=O)C3CC3)CC2)NS(=O)(=O)Cc2ccccc2)cc1`, the Ki (in assay [9]; in [10]; in [11]; in assay [12]; on Prothrombin; on Coagulation factor X) was over 1000 nM in each case. The inhibition constant (Ki) (at Coagulation factor XII; in assay [13]) was over 1000 nM each time.
